Experimental data from ChEMBL document CHEMBL1201862, “PubChem BioAssay data set” (2004).
The source made the active and inactive calls.

Tests used:
[1] = target: Eukaryotic translation initiation factor 4H (Homo sapiens, UniProt Q15056); assay: human eIF4H binding inhibitors, primary screen, translation initiation inhibitor project, biochemical, uHTS, fluorescence polarization (AID 2012)
[2] = target: Polyadenylate-binding protein 1 (Homo sapiens, UniProt P11940); assay: PABP poly(A) RNA binding inhibitors, primary screen, biochemical, fluorescence polarization, uHTS (AID 2014)
Sequence of Polyadenylate-binding protein 1 (P11940 whole entry): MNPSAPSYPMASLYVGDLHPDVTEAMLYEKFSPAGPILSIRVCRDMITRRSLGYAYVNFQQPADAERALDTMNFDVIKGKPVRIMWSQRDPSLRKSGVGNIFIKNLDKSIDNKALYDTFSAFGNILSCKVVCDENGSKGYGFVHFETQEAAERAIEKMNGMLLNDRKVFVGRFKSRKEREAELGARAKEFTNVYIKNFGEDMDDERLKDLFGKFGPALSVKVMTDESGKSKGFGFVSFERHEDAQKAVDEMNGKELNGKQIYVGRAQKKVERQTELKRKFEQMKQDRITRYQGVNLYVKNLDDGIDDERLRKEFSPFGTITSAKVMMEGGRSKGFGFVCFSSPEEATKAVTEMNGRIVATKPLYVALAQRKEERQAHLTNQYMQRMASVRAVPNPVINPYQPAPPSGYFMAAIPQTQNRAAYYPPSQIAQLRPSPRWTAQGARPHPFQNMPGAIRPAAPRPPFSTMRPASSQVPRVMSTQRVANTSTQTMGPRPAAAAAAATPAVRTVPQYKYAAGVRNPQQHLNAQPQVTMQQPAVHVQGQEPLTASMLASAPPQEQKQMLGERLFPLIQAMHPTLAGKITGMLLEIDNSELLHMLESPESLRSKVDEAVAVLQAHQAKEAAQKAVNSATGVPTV

[3] = target: T1, Intestinal-type alkaline phosphatase (Homo sapiens, UniProt P09923); assay: human intestinal alkaline phosphatase activators, dose response, biochemical, luminescence, uHTS hits (AID 463120); format: functional
T1 sequence (P09923 whole entry): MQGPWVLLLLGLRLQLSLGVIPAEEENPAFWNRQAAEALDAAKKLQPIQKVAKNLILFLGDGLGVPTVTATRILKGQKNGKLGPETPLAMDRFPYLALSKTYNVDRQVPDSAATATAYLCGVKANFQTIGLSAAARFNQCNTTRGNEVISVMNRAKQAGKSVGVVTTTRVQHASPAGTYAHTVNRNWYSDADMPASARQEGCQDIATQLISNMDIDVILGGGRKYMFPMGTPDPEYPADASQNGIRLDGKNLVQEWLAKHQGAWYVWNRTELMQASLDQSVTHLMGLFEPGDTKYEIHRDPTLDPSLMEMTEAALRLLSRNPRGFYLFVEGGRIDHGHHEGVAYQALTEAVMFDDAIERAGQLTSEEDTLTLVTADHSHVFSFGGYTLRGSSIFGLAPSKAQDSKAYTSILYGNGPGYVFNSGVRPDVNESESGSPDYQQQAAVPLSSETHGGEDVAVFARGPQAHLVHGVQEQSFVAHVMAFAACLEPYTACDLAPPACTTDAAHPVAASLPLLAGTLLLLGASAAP

[4] = target: T2, Alkaline phosphatase, tissue-nonspecific isozyme (Homo sapiens, UniProt P05186); assay: TNAP enzyme activators, dose response, selectivity assay for human IAP activator project, biochemical, TNAP isozyme, human IAP uHTS hits (AID 488886); format: functional;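 note: potency of compounds raising TNAP activity as a selectivity check on IAP activators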
T2 sequence (P05186 whole entry): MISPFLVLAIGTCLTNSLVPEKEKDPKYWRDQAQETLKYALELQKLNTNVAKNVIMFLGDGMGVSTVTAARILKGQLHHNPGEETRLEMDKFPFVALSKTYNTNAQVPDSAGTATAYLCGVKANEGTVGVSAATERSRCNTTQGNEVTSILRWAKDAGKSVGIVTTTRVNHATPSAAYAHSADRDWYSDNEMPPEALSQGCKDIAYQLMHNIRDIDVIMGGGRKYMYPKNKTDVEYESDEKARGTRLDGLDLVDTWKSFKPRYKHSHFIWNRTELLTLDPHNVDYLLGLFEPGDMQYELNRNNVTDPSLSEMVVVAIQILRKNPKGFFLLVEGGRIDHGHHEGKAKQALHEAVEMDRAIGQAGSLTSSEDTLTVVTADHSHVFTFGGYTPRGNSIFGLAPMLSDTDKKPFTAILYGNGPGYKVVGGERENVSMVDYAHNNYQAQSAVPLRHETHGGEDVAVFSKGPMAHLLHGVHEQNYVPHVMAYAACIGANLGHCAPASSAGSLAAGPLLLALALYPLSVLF

[5] = target: T1, Intestinal-type alkaline phosphatase; assay: human IAP activators, dose response, biochemical, luminescent, uHTS hits, set 2 (AID 488817); format: functional;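 note: potency of activators that raise enzyme activity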
[6] = target: Intestinal-type alkaline phosphatase (Mus musculus, UniProt P24822); assay: PubChem AID 488874; format: functional
[7] = tested on: HEK293; assay: cells; conditions: Homo sapiens
[8] = tested on: HEK293; assay: NOD1 signaling inhibitors, primary screen, cell-based, luminescence, uHTS (AID 1578); format: functional; conditions: Homo sapiens
[9] = target: Nucleotide-binding oligomerization domain-containing protein 2 (Homo sapiens, UniProt Q9HC29); assay: PubChem AID 2334; format: functional
Sequence of Nucleotide-binding oligomerization domain-containing protein 2 (Q9HC29 whole entry, the tested form may be a part): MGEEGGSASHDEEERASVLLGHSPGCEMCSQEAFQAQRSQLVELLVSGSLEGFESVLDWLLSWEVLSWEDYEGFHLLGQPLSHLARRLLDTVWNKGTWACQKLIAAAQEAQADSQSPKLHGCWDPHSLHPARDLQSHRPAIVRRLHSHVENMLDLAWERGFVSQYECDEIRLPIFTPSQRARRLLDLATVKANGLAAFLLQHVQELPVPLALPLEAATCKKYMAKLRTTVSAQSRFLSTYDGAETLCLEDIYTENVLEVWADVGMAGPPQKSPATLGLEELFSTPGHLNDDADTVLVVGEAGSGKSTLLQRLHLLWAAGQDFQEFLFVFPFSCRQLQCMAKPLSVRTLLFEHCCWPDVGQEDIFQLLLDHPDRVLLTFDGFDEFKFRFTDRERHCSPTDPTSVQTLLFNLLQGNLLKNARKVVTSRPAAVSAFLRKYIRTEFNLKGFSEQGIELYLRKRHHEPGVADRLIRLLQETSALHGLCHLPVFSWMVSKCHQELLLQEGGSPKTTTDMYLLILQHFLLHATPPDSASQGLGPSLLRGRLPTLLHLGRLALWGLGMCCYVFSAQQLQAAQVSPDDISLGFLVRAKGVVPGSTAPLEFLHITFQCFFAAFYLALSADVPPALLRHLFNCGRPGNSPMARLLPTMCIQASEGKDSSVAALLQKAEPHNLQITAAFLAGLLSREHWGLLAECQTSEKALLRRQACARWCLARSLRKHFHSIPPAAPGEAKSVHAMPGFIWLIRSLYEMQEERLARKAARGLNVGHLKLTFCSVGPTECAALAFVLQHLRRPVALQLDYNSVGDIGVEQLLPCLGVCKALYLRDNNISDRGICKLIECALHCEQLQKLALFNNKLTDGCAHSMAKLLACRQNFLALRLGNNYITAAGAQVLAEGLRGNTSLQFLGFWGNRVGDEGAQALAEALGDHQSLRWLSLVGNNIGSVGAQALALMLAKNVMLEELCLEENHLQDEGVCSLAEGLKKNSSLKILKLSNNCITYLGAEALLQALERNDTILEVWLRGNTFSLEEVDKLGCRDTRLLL

[10] = tested on: HEK293; assay: cells; format: functional, cell-based; conditions: Homo sapiens
[11] = target: Tumor necrosis factor (Homo sapiens, UniProt P01375); assay: TNFa-triggered NF-kB activation inhibitors, SAR follow-up, cell-based, revised (AID 2337); format: functional
Sequence of Tumor necrosis factor (P01375 whole entry): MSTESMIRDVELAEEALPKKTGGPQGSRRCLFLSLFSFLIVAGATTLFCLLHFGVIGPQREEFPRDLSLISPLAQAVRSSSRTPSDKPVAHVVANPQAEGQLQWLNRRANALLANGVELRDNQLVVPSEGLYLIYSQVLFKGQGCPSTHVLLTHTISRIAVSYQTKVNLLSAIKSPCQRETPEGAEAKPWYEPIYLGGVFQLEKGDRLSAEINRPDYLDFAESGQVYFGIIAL

[12] = tested on: HEK293; assay: NOD2 signaling inhibitors in MDP-stimulated cells, cell-based, uHTS, luminescence (AID 2001); format: functional; conditions: Homo sapiens
[13] = target: T3, Nucleotide-binding oligomerization domain-containing protein 1 (Homo sapiens, UniProt Q9Y239); assay: NOD1 signaling inhibitors, SAR follow-up, revised (AID 2333); format: functional
T3 sequence (Q9Y239 whole entry): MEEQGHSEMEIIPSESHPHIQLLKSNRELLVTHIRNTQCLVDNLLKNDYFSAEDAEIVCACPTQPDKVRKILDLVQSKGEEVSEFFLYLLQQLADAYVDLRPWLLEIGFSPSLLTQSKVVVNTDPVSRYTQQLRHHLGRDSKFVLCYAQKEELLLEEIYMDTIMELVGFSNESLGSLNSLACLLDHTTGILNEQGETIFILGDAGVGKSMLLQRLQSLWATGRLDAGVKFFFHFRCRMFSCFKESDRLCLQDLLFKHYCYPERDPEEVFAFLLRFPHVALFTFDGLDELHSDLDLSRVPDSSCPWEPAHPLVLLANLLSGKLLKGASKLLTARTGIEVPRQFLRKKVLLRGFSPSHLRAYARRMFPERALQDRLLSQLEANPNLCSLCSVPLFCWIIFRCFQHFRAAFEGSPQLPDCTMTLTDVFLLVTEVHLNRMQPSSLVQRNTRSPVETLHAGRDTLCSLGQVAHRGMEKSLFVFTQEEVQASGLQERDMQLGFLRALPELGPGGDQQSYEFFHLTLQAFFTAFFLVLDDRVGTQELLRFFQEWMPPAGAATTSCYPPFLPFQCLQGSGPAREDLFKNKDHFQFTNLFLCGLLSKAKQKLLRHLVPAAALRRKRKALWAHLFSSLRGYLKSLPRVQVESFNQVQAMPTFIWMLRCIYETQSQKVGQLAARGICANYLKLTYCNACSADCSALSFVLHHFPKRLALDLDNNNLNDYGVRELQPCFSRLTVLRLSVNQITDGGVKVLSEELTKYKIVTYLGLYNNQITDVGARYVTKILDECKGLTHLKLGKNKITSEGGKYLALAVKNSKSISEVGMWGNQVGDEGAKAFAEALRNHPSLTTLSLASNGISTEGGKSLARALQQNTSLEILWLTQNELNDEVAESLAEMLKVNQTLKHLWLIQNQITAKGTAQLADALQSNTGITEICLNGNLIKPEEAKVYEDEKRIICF

[14] = tested on: HEK293; assay: cells; format: functional, cell-based; conditions: Homo sapiens; remark: listed apart in the source
[15] = cytotoxicity toward DRD oncogenic fibroblasts, dose response, cell-based, non-viral oncogenic, luminescence (AID 1934); format: functional; conditions: Homo sapiens
[16] = tested on: BJ; assay: cells; format: functional, cell-based; conditions: Homo sapiens
[17] = target: Genome polyprotein (dengue virus type 2, UniProt P29990); assay: Dengue-2 NS5 methyltransferase inhibitors, primary screen, biochemical, confirmation dose response (AID 588689); format: functional
[18] = tested on: BJ; assay: cytotoxicity toward BJ-TERT-LT-ST fibroblasts, dose response, cell-based, RAS-independent, luminescence (AID 1935); format: functional; conditions: Homo sapiens;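 note: BJ fibroblasts immortalized with TERT plus LT and ST oncogenes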
[19] = tested on: BJ; assay: cytotoxicity toward BJ-TERT fibroblasts, dose response, cell-based, RAS-independent, luminescence (AID 1933); format: functional; conditions: Homo sapiens
[20] = target: Envelope glycoprotein gp160 (Human immunodeficiency virus 1, UniProt Q6QLK5); assay: inhibitors of HIV fusion peptide binding, primary screen, biochemical, uHTS, fluorescence dequenching (AID 1986)
Sequence of Envelope glycoprotein gp160 (Q6QLK5 whole entry, the tested form may be a part): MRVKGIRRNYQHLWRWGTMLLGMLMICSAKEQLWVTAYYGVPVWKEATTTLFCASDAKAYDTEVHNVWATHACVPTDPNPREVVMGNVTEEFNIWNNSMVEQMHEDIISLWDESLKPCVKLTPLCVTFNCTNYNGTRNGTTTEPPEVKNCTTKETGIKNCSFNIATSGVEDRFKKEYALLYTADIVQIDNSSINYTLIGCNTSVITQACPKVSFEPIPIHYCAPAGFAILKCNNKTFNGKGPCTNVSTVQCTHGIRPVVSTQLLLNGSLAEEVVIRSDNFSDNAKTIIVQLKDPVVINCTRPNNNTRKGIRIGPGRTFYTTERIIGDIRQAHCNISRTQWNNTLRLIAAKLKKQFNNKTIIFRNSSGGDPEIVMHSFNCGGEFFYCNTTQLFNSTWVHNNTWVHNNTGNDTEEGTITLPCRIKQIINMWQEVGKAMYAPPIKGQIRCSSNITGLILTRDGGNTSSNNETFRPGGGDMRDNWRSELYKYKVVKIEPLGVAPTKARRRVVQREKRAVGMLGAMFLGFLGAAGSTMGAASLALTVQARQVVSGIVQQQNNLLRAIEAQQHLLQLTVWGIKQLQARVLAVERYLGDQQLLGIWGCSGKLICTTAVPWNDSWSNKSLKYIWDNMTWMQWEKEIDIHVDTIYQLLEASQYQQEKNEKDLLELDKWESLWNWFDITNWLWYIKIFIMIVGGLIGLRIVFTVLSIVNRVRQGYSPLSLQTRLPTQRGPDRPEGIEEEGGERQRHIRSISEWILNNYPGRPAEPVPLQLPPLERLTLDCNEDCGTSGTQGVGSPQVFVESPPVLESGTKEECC

[21] = target: Beta-galactosidase (Escherichia coli, UniProt Q8VNN2); format: functional
Sequence of Beta-galactosidase (Q8VNN2 whole entry): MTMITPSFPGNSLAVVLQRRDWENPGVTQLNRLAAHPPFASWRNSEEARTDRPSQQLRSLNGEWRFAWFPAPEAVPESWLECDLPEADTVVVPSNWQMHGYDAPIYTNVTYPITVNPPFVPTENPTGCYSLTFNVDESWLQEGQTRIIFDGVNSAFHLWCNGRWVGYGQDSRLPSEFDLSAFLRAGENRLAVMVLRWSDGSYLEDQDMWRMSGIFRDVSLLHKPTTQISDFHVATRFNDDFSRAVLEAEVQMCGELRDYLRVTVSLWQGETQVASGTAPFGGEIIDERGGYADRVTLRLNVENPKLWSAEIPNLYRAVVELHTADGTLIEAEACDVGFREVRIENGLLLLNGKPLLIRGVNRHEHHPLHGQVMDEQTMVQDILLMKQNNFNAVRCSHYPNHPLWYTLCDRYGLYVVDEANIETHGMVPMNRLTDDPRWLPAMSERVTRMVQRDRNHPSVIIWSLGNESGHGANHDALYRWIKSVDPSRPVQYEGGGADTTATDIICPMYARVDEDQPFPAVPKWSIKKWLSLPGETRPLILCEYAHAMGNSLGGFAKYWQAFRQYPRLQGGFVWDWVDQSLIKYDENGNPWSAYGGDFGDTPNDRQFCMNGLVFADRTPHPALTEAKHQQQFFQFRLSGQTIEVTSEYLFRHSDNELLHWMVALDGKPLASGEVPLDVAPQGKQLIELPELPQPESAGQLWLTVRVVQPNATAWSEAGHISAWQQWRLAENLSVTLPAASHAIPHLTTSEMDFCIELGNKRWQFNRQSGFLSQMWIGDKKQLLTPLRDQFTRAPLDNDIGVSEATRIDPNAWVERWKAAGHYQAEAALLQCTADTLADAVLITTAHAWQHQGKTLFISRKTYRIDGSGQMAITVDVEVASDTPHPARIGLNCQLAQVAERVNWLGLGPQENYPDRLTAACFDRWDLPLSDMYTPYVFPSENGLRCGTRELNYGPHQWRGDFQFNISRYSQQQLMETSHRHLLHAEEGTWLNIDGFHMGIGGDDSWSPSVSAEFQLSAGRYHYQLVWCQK

[22] = target: T4, Leucine aminopeptidase (Plasmodium falciparum 3D7, UniProt Q8IL11); assay: P. falciparum M17LAP inhibitors, primary screen, biochemical, fluorogenic H-Leu-NHMec substrate, 1536-well (AID 1619); format: functional
T4 sequence (Q8IL11 whole entry): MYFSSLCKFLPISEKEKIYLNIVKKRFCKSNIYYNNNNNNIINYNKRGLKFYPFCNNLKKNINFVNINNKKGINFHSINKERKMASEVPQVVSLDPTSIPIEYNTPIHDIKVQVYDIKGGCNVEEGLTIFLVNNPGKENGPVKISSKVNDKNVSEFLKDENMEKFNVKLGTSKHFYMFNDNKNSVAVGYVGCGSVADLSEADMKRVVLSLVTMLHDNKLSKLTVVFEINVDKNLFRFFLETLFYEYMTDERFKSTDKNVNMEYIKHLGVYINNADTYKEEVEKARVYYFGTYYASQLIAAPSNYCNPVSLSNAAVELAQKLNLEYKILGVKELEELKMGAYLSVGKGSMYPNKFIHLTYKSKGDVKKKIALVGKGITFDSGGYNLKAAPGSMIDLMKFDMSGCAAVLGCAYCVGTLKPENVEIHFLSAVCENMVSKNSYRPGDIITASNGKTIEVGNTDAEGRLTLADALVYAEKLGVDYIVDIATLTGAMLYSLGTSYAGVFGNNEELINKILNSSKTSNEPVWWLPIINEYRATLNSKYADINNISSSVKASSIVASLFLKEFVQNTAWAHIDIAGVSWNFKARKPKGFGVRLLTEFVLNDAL

[23] = target: T2, Alkaline phosphatase, tissue-nonspecific isozyme

Cc1ccc(NC(=O)COC(=O)/C=C/c2ccco2)cc1S(=O)(=O)N(C)C
IC50 [1]: 21.9 µM (active)
IC50 [2]: 90.5 µM (active)

CN(Cc1ccccc1)C(=O)c1nc[nH]c1C(=O)Nc1nccs1
EC50 [3]: 10.1 µM (active)
EC50 [4]: 16.6 µM (active)
EC50 [5]: 15.8 µM (active)
IC50 [6]: 74.8 µM (active)

NC(=O)C1CCN(c2ccc(S(=O)(=O)N3CCC(Cc4ccccc4)CC3)cn2)CC1
IC50 [7]: > 20 µM (inactive)
EC50 [8]: 4.32 µM (active)
IC50 [9]: 9.14 µM (active)
IC50 [10]: > 20 µM (inactive)
IC50 [11]: 12.4 µM (active)
IC50 [12]: > 20 µM (inactive)
IC50 [13]: 5.76 µM (active)
IC50 [14]: > 20 µM (inactive)

O=C(O)CCN1C(=O)/C(=C\c2cccc(Oc3ccccc3)c2)SC1=S
EC50 [15]: > 150 µM (not active)
EC50 [16]: > 150 µM (not active)
IC50 [17]: 37.4 µM (active)
EC50 [18]: > 150 µM (inconclusive)
EC50 [19]: > 150 µM (not active)
IC50 [20]: 26.8 µM (active)

C=CCN1CC[C@]23c4c5ccc(O)c4OC2C(=O)CC[C@@]3(O)C1C5 (stereo partly drawn)
EC50 [21]: > 31.5 µM (inactive)

O=C1/C(=C/c2cccs2)NC(=S)N1C1CC1
IC50 [22]: 6.44 µM (active)
EC50 [23]: > 100 µM (not active)
